Measurements from article PMC5766581, “NF-κB inducing kinase is a therapeutic target for systemic lupus erythematosus” (Nature Communications, 2018).

How the values were obtained:
[1] = tested on: Balb/c mice; experiment: TNP-OVA immunization model; assay type: in vivo, mouse; settings: 300 mg/kg P.O. BID, 10 days
Text: Four to nine 8-week-old female Balb/c mice were randomized into experimental groups upon delivery from vendor. […] Investigators were not blinded to experimental samples.

[2] = tested on: mouse B cells; experiment: BAFF B cell survival assay (Cell Titer Glo); assay type: cell-based; settings: BAFF induced; mean ± SD
[3] = tested on: human B cells; experiment: Human B cell rhCD40L proliferation assay; assay type: cell-based; settings: thymidine incorporation, day four; read-out: Human B cell anti-CD40 proliferation IC50
[4] = tested on: IL-12p40 production from human monocyte derived DC; experiment: CD40L induced IL-12p40 production from human DCs; assay type: cell-based; settings: human monocyte derived DC, rhCD40L; mean ± SD; read-out: CD40-induced IL-12 p40 IC50
Method: Human monocytes were enriched from whole blood (Monocyte enrichment RosetteSep, Stem Cell) followed by isolation using Monocyte Isolation Kit II (Miltenyi). Isolated monocytes were cultured (RPMI-10% FBS, penicillin/streptomycin, glutamine) with rhGM-CSF (100 ng/mL) and rhIL-4 (6.5 ng/mL) (R&D Systems) for 5 days with GM-CSF replacement on day 3. On Day 5 immature monocyte derived DCs were monitored for differentiation by flow cytometry ([…], CD83^low CD86^low CD209^+/hi). […] After 24 h plates were centrifuged and supernatants were removed for IL-12p40 cytokine measurement by ELISA (BD Biosciences). Plots and IC50 measurements were generated using GraphPad Prism software.

[5] = tested on: nuclear p52 (non-canonical NF-κB signaling); experiment: High content nuclear p52 imaging, anti-LTβR-stimulated HeLa cells; assay type: cell-based, human; settings: anti-LTβR induced, mean ± SD
Method: (§1) The HeLa cell line was used to define the cellular selectivity of NIK inhibitors toward inhibition of classical vs. non-classical NF-κB signaling using high content cellular imaging assays. For the nuclear translocation assay p52 (non-canonical NF-κB signaling), HeLa cells were treated with different concentrations of compounds previously diluted in DMSO (final [DMSO] = 0.2% in all wells) in DMEM medium (10% FBS, 2 mM Glutamine) and then stimulated with 300 ng/mL of an anti-lymphotoxin beta receptor antibody for 4.5 h. In the REL-A nuclear translocation assay, HeLa cells were incubated with compounds for 4 h 50 min before stimulating them with 2 ng/mL TNF (R&D Systems) for 10 min. Cells were fixed with 4% paraformaldehyde, permeabilized by adding 0.1% Triton X-100 in phosphate buffered saline, and then are incubated with either 2 μg/mL anti-p52 antibody or 400 ng/mL anti-REL-A (p65) antibody. Finally, the cells are incubated with an Alexa488-labeled secondary antibody (Invitrogen) and DRAQ5 DNA stain (Biostatus). Imaging was carried out using an Opera reader (Perkin Elmer) and data were analyzed with Acapella software (Perkin Elmer). The p52 or REL-A translocation into the nucleus is quantified by the ratio of the nuclear to cytoplasmic signal intensity.

[6] = tested on: human B cells; experiment: BAFF B cell survival assay (Cell Titer Glo); assay type: cell-based; settings: BAFF induced; mean ± SD
Method: Human B cells were isolated using Miltenyi Human B cell isolation kit following ficoll separation of buffy coats. […] Mouse B cells were isolated from mouse spleen using Miltenyi mouse B cell isolation kit II. Cells were plated in Co-star 96-well plates at either 50,000 cells/well for the survival assays or at 150,000 cells/well for the proliferation assays. Compounds diluted in DMSO (final DMSO assay concentration = 0.1%) were added to the cells. The cells were incubated with compound for one hour at 37 °C. Stimulus was then added to the plates and survival or proliferation was measured after four days. For the proliferation assays, cells were treated with either Anti-IgM (20 μg/mL) or rhCD40L (10 μg/mL; R&D) or anti-mouse CD40 (100 ng/mL). Proliferation was measured using thymidine incorporation on day four. For the BAFF survival assay, cells were treated with human or mouse rBAFF (R&D Systems) at 10 ng/ml followed by Cell Titer Glo (Promega) to measure survival on day four.

[7] = tested on: nuclear RelA (canonical NF-κB signaling); experiment: High content nuclear RelA imaging, TNF-stimulated HeLa cells; assay type: cell-based, human; settings: TNF induced
Method: as §1

[8] = tested on: rhCD40L induced ICOSL expression on human B cells; experiment: ICOSL expression on human B cell assay; assay type: cell-based; settings: ICOSL MFI by FACS, mean ± SD, read-out: CD40-induced ICOSL IC50
Method: Human B cells were isolated from whole blood. B cells were enriched by RosetteSep protocol (Stem Cell Technologies), and then isolated using Human B cell isolation kit II (Miltenyi). […] Mean fluorescent intensity (MFI) of CD40L and BAFF induced ICOSL expression was measured by flow cytometry on cells stained with anti-CD20 and anti-ICOSL, using a FACS Calibur instrument (BD). Plots and IC50 measurements were generated using GraphPad Prism Software.

[9] = molecular target: T1, mouse NIK (Mus musculus, UniProt Q9WUL6); experiment: NIK Transcreener ADP enzymatic assay; assay type: biochemical; settings: mouse NIK enzymatic activity; mean ± SD
T1 construct: mouse NIK kinase domain (a.a. 329–675) (1 nM); made in house; host or cells: baculovirus-infected insect cells
T1 sequence (Q9WUL6 329-675): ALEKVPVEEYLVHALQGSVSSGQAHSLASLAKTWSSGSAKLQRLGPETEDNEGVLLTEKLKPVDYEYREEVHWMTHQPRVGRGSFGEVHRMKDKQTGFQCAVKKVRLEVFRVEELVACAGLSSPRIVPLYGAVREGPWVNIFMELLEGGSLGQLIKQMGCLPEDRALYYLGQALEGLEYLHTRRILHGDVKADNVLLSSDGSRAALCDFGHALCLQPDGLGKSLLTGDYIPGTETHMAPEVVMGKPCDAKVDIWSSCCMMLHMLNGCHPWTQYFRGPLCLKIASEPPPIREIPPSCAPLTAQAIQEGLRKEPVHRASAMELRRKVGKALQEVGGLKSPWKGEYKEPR

[10] = tested on: human B cells; experiment: Human B cell anti-IgM proliferation assay; assay type: cell-based; settings: thymidine incorporation, day four

For `CN1CC[C@@](O)(C#Cc2cccc(-n3nc(C(N)=O)c4ccccc43)c2)C1=O` [NIK SMI2], the “germinal center B cell development and antigen-specific IgG1 production” value [1] was “reduced”, the IC50 [2] was 1750 nM and the IC50 [3] was greater than 10000 nM. It also gave an IC50 [4] of 60.7 nM, an IC50 [5] of 43 nM and an IC50 [6] of 360 nM. The IC50 [7] was greater than 2000 nM, the IC50 [8] was 58.7 nM and the Ki [9] was 0.84 nM. It also gave an IC50 [10] greater than 10000 nM.
